Assay results as given in PubChem BioAssay AID1963865 (Molecular Pharmacology Branch, DTP, NCI, 2024).

System: KRAS PDC multicell spheroid viability
Assay: Anticancer human tumor 825966-067-R-J1-PDC patient-derived colon carcinoma cell line growth inhibition [KRAS2]
Conditions: for IC50: curve of first compound; for viability, T/C: stronger effect = lower value
Procedure, shortened: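 KRAS-mutant tumor cells were grown as spheroids with HUVEC endothelial cells and human MSCs as stroma. Targeted agents were tested alone and with KRAS pathway inhibitors. Doses started at or near clinical Cmax, or 10 microM, descending half-log.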

[1] = second compound 0.0316 µM, first compound 0.0316 µM
[2] = second compound 0.0316 µM, first compound 0.1 µM
[3] = second compound 0.0316 µM, first compound 0.316 µM
[4] = second compound 0.0316 µM, first compound 1 µM
[5] = second compound 0.0316 µM, first compound 3.16 µM
[6] = second compound 0.0316 µM, first compound 10 µM
[7] = second compound 0.1 µM, first compound 0.0316 µM
[8] = second compound 0.1 µM, first compound 0.1 µM
[9] = second compound 0.1 µM, first compound 0.316 µM
[10] = second compound 0.1 µM, first compound 1 µM
[11] = second compound 0.1 µM, first compound 3.16 µM
[12] = second compound 0.1 µM, first compound 10 µM
[13] = second compound 0.316 µM, first compound 0.0316 µM
[14] = second compound 0.316 µM, first compound 0.1 µM
[15] = second compound 0.316 µM, first compound 0.316 µM
[16] = second compound 0.316 µM, first compound 1 µM
[17] = second compound 0.316 µM, first compound 3.16 µM
[18] = second compound 0.316 µM, first compound 10 µM
[19] = second compound 1 µM, first compound 0.0316 µM
[20] = second compound 1 µM, first compound 0.1 µM
[21] = second compound 1 µM, first compound 0.316 µM
[22] = second compound 1 µM, first compound 1 µM
[23] = second compound 1 µM, first compound 3.16 µM
[24] = second compound 1 µM, first compound 10 µM
[25] = second compound 3.16 µM, first compound 0.0316 µM
[26] = second compound 3.16 µM, first compound 0.1 µM
[27] = second compound 3.16 µM, first compound 0.316 µM
[28] = second compound 3.16 µM, first compound 1 µM
[29] = second compound 3.16 µM, first compound 3.16 µM
[30] = second compound 3.16 µM, first compound 10 µM
[31] = second compound 0.0316 µM, first compound 0.01 µM
[32] = second compound 0.1 µM, first compound 0.01 µM
[33] = second compound 0.316 µM, first compound 0.01 µM
[34] = second compound 1 µM, first compound 0.01 µM
[35] = second compound 3.16 µM, first compound 0.01 µM
[36] = second compound 0.0316 µM, first compound 0.00316 µM
[37] = second compound 0.1 µM, first compound 0.00316 µM
[38] = second compound 0.316 µM, first compound 0.00316 µM
[39] = second compound 1 µM, first compound 0.00316 µM
[40] = second compound 3.16 µM, first compound 0.00316 µM
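Also: spheroids exposed to compounds for 7 days.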
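For viability, T/C in this document: 100% = DMSO vehicle control viability.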

| Structure (SMILES) | IC50 (second compound 0.0316 µM) [nM] | IC50 (second compound 0.1 µM) [nM] | IC50 (second compound 0.316 µM) [nM] | IC50 (second compound 1 µM) [nM] | IC50 (second compound 3.16 µM) [nM] | viability, T/C [1] [%] | viability, T/C [2] [%] | viability, T/C [3] [%] | viability, T/C [4] [%] | viability, T/C [7] [%] | viability, T/C [8] [%] | viability, T/C [9] [%] | viability, T/C [10] [%] | viability, T/C [13] [%] | viability, T/C [14] [%] | viability, T/C [15] [%] | viability, T/C [19] [%] | viability, T/C [20] [%] | viability, T/C [25] [%] | viability, T/C [26] [%] | further results |
| --- | --- | --- | --- | --- | --- | --- | --- | --- | --- | --- | --- | --- | --- | --- | --- | --- | --- | --- | --- | --- | --- |
| CC(C)NCC(C(=O)N1CCN(c2ncnc3c2C(C)CC3O)CC1)c1ccc(Cl)cc1 (stereo not given) + C=CC(=O)N1CCN(c2nc(OCC3CCCN3C)nc3c2CCN(c2cccc4cccc(C)c24)C3)CC1CC#N | 2180 | 2430 | 2140 | 1870 | 447 | 105 | 114 | 131 | 94.2 | 83.8 | 99.2 | 126 | 126 | 87.7 | 118 | 137 | 86.9 | 98.3 | 84.5 | 56.9 | viability, T/C [5]: 29.3%; viability, T/C [6]: 10.8%; viability, T/C [11]: 32.3%; viability, T/C [12]: 9.94%; viability, T/C [16]: 101%; viability, T/C [17]: 23.3%; viability, T/C [18]: 9.48%; viability, T/C [21]: 124%; viability, T/C [22]: 88.1%; viability, T/C [23]: 17.6%; viability, T/C [24]: 5.49%; viability, T/C [27]: 66%; viability, T/C [28]: 13.9%; viability, T/C [29]: 2.27%; viability, T/C [30]: 0.81% |
| CC1COCCN1c1cc(-c2ccnn2C)c2ccnc(-c3ccn[nH]3)c2n1 (stereo not given) + C=CC(=O)N1CCN(c2nc(OCC3CCCN3C)nc3c2CCN(c2cccc4cccc(C)c24)C3)CC1CC#N | > 3160 | > 3160 | 208 | 89.5 | 14.5 | 102 | 69.1 | 56.7 | 73.8 | 114 | 63.6 | 46.8 | 70.6 | 119 | 65 | 41.6 | 123 | 39.6 | 20.2 | 23.1 | viability, T/C [31]: 118%; viability, T/C [5]: 46.4%; viability, T/C [32]: 101%; viability, T/C [11]: 49.5%; viability, T/C [33]: 94.5%; viability, T/C [16]: 61.1%; viability, T/C [17]: 21.7%; viability, T/C [34]: 120%; viability, T/C [21]: 56.3%; viability, T/C [22]: 39.3%; viability, T/C [23]: 34.4%; viability, T/C [35]: 64.1%; viability, T/C [27]: 9.83%; viability, T/C [28]: 15.4%; viability, T/C [29]: 25.3% |
| CCN1CCN(Cc2ccc(Nc3ncc(F)c(-c4cc(F)c5nc(C)n(C(C)C)c5c4)n3)nc2)CC1 + C=CC(=O)N1CCN(c2nc(OCC3CCCN3C)nc3c2CCN(c2cccc4cccc(C)c24)C3)CC1CC#N | > 1000 | > 1000 | > 1000 | > 1000 | 397 | 91 | 113 | 158 | 153 | 108 | 165 | 198 | 123 | 119 | 86.5 | 160 | 102 | 166 | 133 | 125 | viability, T/C [36]: 93.5%; viability, T/C [31]: 112%; viability, T/C [37]: 97.1%; viability, T/C [32]: 114%; viability, T/C [38]: 103%; viability, T/C [33]: 105%; viability, T/C [16]: 115%; viability, T/C [39]: 95.7%; viability, T/C [34]: 110%; viability, T/C [21]: 167%; viability, T/C [22]: 112%; viability, T/C [40]: 83.7%; viability, T/C [35]: 114%; viability, T/C [27]: 61.6%; viability, T/C [28]: 2.39% |
| CCNC(=O)CC1N=C(c2ccc(Cl)cc2)c2cc(OC)ccc2-n2c(C)nnc21 (stereo not given) + C=CC(=O)N1CCN(c2nc(OCC3CCCN3C)nc3c2CCN(c2cccc4cccc(C)c24)C3)CC1CC#N | > 10000 | > 10000 | > 10000 | > 10000 | 725 | 80.1 | 112 | 118 | 115 | 79.5 | 112 | 113 | 89.5 | 90 | 119 | 121 | 91.8 | 110 | 109 | 125 | viability, T/C [5]: 82.2%; viability, T/C [6]: 75.9%; viability, T/C [11]: 79.4%; viability, T/C [12]: 75.9%; viability, T/C [16]: 118%; viability, T/C [17]: 69.7%; viability, T/C [18]: 72.4%; viability, T/C [21]: 126%; viability, T/C [22]: 85.8%; viability, T/C [23]: 44.4%; viability, T/C [24]: 59.5%; viability, T/C [27]: 87.6%; viability, T/C [28]: 20.3%; viability, T/C [29]: 55.5%; viability, T/C [30]: 30.7% |
| Cn1nccc1Nc1nccc(-c2cc3c(s2)C(C)(C)N(CCN2CCOCC2)C3=O)n1 + C=CC(=O)N1CCN(c2nc(OCC3CCCN3C)nc3c2CCN(c2cccc4cccc(C)c24)C3)CC1CC#N | > 10000 | > 10000 | > 10000 | > 10000 | 674 | 108 | 91.1 | 121 | 108 | 84 | 91.6 | 106 | 100 | 72.2 | 110 | 125 | 85.9 | 96.1 | 84.9 | 76.4 | viability, T/C [5]: 95.3%; viability, T/C [6]: 68.5%; viability, T/C [11]: 73.4%; viability, T/C [12]: 79.8%; viability, T/C [16]: 93.7%; viability, T/C [17]: 75.9%; viability, T/C [18]: 61.2%; viability, T/C [21]: 127%; viability, T/C [22]: 96%; viability, T/C [23]: 64.8%; viability, T/C [24]: 56.4%; viability, T/C [27]: 104%; viability, T/C [28]: 4.64%; viability, T/C [29]: 27.8%; viability, T/C [30]: 57.8% |
| Cn1ncnc1[C@H]1c2n[nH]c(=O)c3cc(F)cc(c23)N[C@@H]1c1ccc(F)cc1 + C=CC(=O)N1CCN(c2nc(OCC3CCCN3C)nc3c2CCN(c2cccc4cccc(C)c24)C3)CC1CC#N | > 100 | > 100 | > 100 | > 100 | > 100 | 85.2 | 82.5 | – | – | 81.5 | 77 | – | – | 91.4 | 82.5 | – | 112 | 98.9 | 84.6 | 102 | viability, T/C (second compound 0.0316 µM, first compound 0.000316 µM): 108%; viability, T/C (second compound 0.0316 µM, first compound 0.001 µM): 108%; viability, T/C [36]: 91.5%; viability, T/C [31]: 78%; viability, T/C (second compound 0.1 µM, first compound 0.000316 µM): 86.3%; viability, T/C (second compound 0.1 µM, first compound 0.001 µM): 106%; viability, T/C [37]: 119%; viability, T/C [32]: 80%; viability, T/C (second compound 0.316 µM, first compound 0.000316 µM): 120%; viability, T/C (second compound 0.316 µM, first compound 0.001 µM): 103%; viability, T/C [38]: 133%; viability, T/C [33]: 88.1%; viability, T/C (second compound 1 µM, first compound 0.000316 µM): 127%; viability, T/C (second compound 1 µM, first compound 0.001 µM): 103%; viability, T/C [39]: 98.6%; viability, T/C [34]: 91.3%; viability, T/C (second compound 3.16 µM, first compound 0.000316 µM): 86.5%; viability, T/C (second compound 3.16 µM, first compound 0.001 µM): 123%; viability, T/C [40]: 112%; viability, T/C [35]: 120% |
